Measured values taken from paper PMC3871636 (PLoS ONE, 2013).

Legend:
[1] = molecular target: CYP3A4 (double-labeled (C64/C468)-DY/ER) (Homo sapiens, UniProt P08684, form not given/S18F); experiment: Steady-state LRET titration (delayed emission); format: binding; conditions: human, purified double-labeled CYP3A4 (C64/C468)-DY/ER protein, pH 7.4; (C64/C468)-DY/ER; LRET titration; read-out: K d, steady-state fluorescence
Procedure: (§1) All absorbance and fluorescence assays (including the time-resolved fluorescence measurements) were performed at a protein concentration ≤1 µM at 25°C with continuous stirring. Absorbance spectra were recorded with an S2000 rapid scanning CCD spectrometer (Ocean Optics). Ligand binding assays were done in 100 mM Na-Hepes buffer, pH 7.4, containing 0.5 mM EDTA.
(§2) Fluorescence-based ligand binding assays were done under anaerobic conditions. Anaerobiosis was achieved using an oxygen-scavenging system consisting of protecatechuate-3,4-dioxygenase (0.5 units/ml) and 5 mM protocatechuic acid. The steady state and time-resolved phosphorescence measurements were performed with the use of a Cary Eclipse fluorescence spectrophotometer (Varian/Agilent Technologies). The excitation wavelength was set to 540 nm. Spectra were taken from 650 to 860 nm with 100 µs delay.
(§3) Quantitative interpretation of LRET results was also based on the use of PCA applied to a series of emission spectra normalized on integral intensity. […] Intensity of the donor and acceptor fluorescence obtained in this way were used in determination of the efficiency of steady-state LRET using the equation [drawing 1] (Eq.1) where I ad is emission intensity of the acceptor, I da is the residual donor emission in the presence of acceptor (I da), Φ a and Φ d are the quantum yield of the fluorescence of acceptor and the quantum yield of the phosphorescence of donor, respectively.
(§4) Distances were calculated using the equation: [drawing 3] (Eq.3) where R 0 is the Förster distance, and R is the distance between the donor and acceptor. R 0 was calculated with the use of PhotoChemCad software. In these calculations, we used the values of the orientation factor (κ^2) and the refractive index (n) of 0.667 and 1.4, respectively.
(§5) When fitting the results of titration experiments, where the changes in the monitored signal A S (fraction of the enzyme in the high-spin state, intensity or the lifetime of the donor phosphorescence at a given substrate concentration) were assumed to be proportional to [ES], this equation was complemented with the offset A 0 and the scaling factor A max to yield the following relationship: [drawing 5] (Eq.5)

[2] = molecular target: CYP3A4 (double-labeled (C64/C468)-ER/DY) (Homo sapiens, UniProt P08684, form not given/S18F); experiment: Steady-state LRET titration (delayed emission); format: binding; conditions: human, purified double-labeled CYP3A4 (C64/C468)-ER/DY protein, pH 7.4; (C64/C468)-ER/DY; LRET titration; read-out: K d, steady-state fluorescence
Procedure: as §1, §2, §3, §4, §5

[3] = molecular target: T1, double-labeled CYP3A4 (C64/C468)-DY/ER (Homo sapiens, UniProt P08684, S18F, form not given); experiment: Steady-state LRET titration (delayed emission); format: binding
Procedure: as §1, §2, §3, §4, §5

[4] = molecular target: T2, double-labeled CYP3A4 (C64/C468)-ER/DY (Homo sapiens, UniProt P08684, S18F, form not given); experiment: Steady-state LRET titration (delayed emission); format: binding
Procedure: as §1, §2, §3, §4, §5

[5] = molecular target: T3, double-labeled CYP3A4 C377/C468-DY/ER (Homo sapiens, UniProt P08684, S18F, form not given); experiment: Steady-state LRET titration (delayed emission); format: binding; conditions: Table S2, protein C377/C468-ER/DY
Procedure: as §1, §2, §3, §4, §5

[6] = molecular target: T4, double-labeled CYP3A4 C64/C121-DY/ER (Homo sapiens, UniProt P08684, A121C/C239S/C377S/C468A/C98S/S18F); experiment: Steady-state LRET titration (delayed emission); conditions: Table S2; protein C64/C121-ER/DY; same ligand concentrations
Procedure: as §1, §2, §3, §4, §5

[7] = molecular target: T1, double-labeled CYP3A4 (C64/C468)-DY/ER; experiment: Time-resolved LRET (phosphorescence lifetime measurements)
Excerpt: (§6) The excitation wavelength was set to 540 nm.

[8] = molecular target: T2, double-labeled CYP3A4 (C64/C468)-ER/DY; experiment: as above
Excerpt: as §6

[9] = molecular target: T3, double-labeled CYP3A4 C377/C468-DY/ER; experiment: as above
Excerpt: as §6

[10] = molecular target: T4, double-labeled CYP3A4 C64/C121-DY/ER; experiment: as above; conditions: same ligand concentrations
Procedure: as §1, §2
The treatment of the time-resolved decay traces was performed using a bi-exponential approximation. The efficiency of time-resolved LRET was calculated using the equation [drawing 2] (Eq.2)
In this equation τda and τd designate the average lifetime of the excited state of the donor in the presence and absence of the acceptor, respectively. These average lifetimes are determined as τ = α1τ1+α2τ2, where τ1,2 and α1,2 stay for the lifetime and the relative amplitude of each of the two exponential terms. In our calculations of the lifetime in double-labeled C64/C468, C377/C468 and C64/C121 proteins we used the lifetimes of phosphorescence measured with the respective proteins labeled with ERIA at a label:protein ratio 2∶1 as the estimates of τd.
as §4

[11] = Table S2, C64/C468-DY/ER, 1-PB 40 µM, ANF 100 µM, BCT 2.5 µM, cholesterol 100 µM, testosterone 100 µM
[12] = Table S2, C64/C468-DY/ER, same ligand concentrations
[13] = Table S2, C64/C468-ER/DY, 1-PB 40 µM, ANF 100 µM, BCT 2.5 µM, cholesterol 100 µM, testosterone 100 µM
[14] = Table S2, C64/C468-ER/DY, same ligand concentrations
[15] = (C64/C468)-DY/ER, nearly-saturating ligand: ANF 100 µM, bromocriptine 2.5 µM, cholesterol 50 µM, testosterone 100 µM
[16] = Table S1, (C64/C468)-DY/ER, same ligand concentrations
[17] = (C64/C468)-ER/DY, nearly-saturating ligand: ANF 100 µM, bromocriptine 2.5 µM, cholesterol 50 µM, testosterone 100 µM
[18] = Table S1, (C64/C468)-ER/DY, same ligand concentrations
[19] = Table S1, protein (C377/C468)-ER/DY, same ligand concentrations
[20] = Table S2, protein C377/C468-ER/DY, same ligand concentrations
[21] = Table S1, protein (C64/C121)-ER/DY
[22] = Table S2, protein C64/C121-ER/DY

T4 sequence (P08684 with tags, fused parts or gaps S18F/C98S/A121C/C239S/C377S/C468A limits assumed): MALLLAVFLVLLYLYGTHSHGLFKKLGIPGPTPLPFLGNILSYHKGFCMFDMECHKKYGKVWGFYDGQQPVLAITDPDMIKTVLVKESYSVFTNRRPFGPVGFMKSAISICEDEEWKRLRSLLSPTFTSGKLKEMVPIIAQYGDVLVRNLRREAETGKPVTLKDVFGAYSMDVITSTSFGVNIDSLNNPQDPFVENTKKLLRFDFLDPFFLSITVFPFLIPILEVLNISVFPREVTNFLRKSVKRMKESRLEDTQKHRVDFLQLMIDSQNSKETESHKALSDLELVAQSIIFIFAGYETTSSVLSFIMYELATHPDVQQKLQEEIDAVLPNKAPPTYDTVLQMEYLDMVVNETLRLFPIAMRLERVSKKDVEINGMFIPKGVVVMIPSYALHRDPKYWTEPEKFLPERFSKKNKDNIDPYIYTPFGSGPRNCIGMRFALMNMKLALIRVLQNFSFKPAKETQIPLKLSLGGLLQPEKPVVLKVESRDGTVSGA
T3 sequence (P08684 13-503 S18F, form open): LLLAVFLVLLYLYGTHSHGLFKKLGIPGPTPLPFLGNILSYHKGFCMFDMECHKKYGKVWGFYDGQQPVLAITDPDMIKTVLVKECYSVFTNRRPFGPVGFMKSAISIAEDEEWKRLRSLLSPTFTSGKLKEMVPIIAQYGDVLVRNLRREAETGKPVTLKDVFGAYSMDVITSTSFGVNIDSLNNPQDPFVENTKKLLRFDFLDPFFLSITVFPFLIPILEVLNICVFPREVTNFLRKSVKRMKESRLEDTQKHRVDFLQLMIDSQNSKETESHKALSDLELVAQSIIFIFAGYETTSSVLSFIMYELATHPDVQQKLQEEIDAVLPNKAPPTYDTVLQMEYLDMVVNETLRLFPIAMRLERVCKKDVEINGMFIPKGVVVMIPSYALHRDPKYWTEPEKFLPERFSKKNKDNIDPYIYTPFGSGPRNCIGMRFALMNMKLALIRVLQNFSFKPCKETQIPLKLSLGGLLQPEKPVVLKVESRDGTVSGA
T2 sequence (P08684 13-503 S18F, form open): as above
T1 sequence (P08684 13-503 S18F, form open): as above
CYP3A4 (double-labeled (C64/C468)-ER/DY), sequence (P08684 13-503 S18F, form open): as above
CYP3A4 (double-labeled (C64/C468)-DY/ER), sequence (P08684 13-503 S18F, form open): as above

## CC(C)CCC[C@@H](C)[C@H]1CC[C@H]2[C@@H]3CC=C4C[C@@H](O)CC[C@]4(C)[C@H]3CC[C@]12C [Cholesterol, cholesterol]
[1]
  Kd: 6.5 ± 1.1 µM
[2]
  Kd: 7.7 ± 0.9 µM
[3]; (C64/C468)-DY/ER
  ΔR (change in interprobe distance), steady-state fluorescence: 5.9±2.0 Å
[3]; (C64/C468)-DY/ER, from maximal relative change in donor intensity
  ΔE (change in LRET efficiency), steady-state fluorescence: −11±1%
[3]; [11]
  E (LRET efficiency with ligand), steady-state measurements: 24 ± 1%
[3]; [12]
  R (interprobe distance with ligand), steady-state measurements: 40.8 ± 2.0 Å
  ΔR, steady-state measurements: 5.9 ± 2.0 Å
[4]; (C64/C468)-ER/DY
  ΔR (change in interprobe distance), steady-state fluorescence: 3.5±0.7 Å
[4]; (C64/C468)-ER/DY, from maximal relative change in donor intensity
  ΔE (change in LRET efficiency), steady-state fluorescence: −10±5%
[4]; [13]
  E (LRET efficiency with ligand), steady-state measurements: 19 ± 1%
[4]; [14]
  R (interprobe distance with ligand), steady-state measurements: 42.6 ± 0.7 Å
  ΔR, steady-state measurements: 3.5 ± 0.7 Å
[5]; 1-PB 40 µM, ANF 100 µM, BCT 2.5 µM, cholesterol 100 µM, testosterone 100 µM
  E (LRET efficiency with ligand), steady-state measurements: 14 ± 0%
[5]; same ligand concentrations
  R (interprobe distance with ligand), steady-state measurements: 45.2 ± 0.1 Å
  ΔR, steady-state measurements: 0.5 ± 0.1 Å
[6]
  R (interprobe distance with ligand), steady-state measurements: 43.6 ± 0.5 Å
  ΔR, steady-state measurements: 1.0 ± 0.5 Å
[7]; [15]
  ΔELT (change in LRET efficiency), lifetime measurements: −5.9±3%
  ΔR (change in interprobe distance), lifetime measurements: 1.6±1.0 Å
[7]; Table S1, (C64/C468)-DY/ER, 1-PB 40 µM, ANF 100 µM, BCT 2.5 µM, cholesterol 100 µM, testosterone 100 µM, bi-exponential fit
  τ1 (phosphorescence decay time with ligand): 59 ± 1 µs
[7]; [16]
  F1 (fraction of first exponential): 43 ± 2%
  τ2 (phosphorescence decay time with ligand): 221 ± 1 µs
  τav (average phosphorescence lifetime with ligand): 152 ± 6 µs
[7]; [11]
  E (LRET efficiency with ligand), lifetime measurements: 35 ± 3%
[7]; [12]
  R (interprobe distance with ligand), lifetime measurements: 38.3 ± 0.7 Å
  ΔR, lifetime measurements: 1.6 ± 0.7 Å
[8]; [17]
  ΔELT (change in LRET efficiency), lifetime measurements: −16.6±1%
  ΔR (change in interprobe distance), lifetime measurements: 4.8±0.2 Å
[8]; Table S1, (C64/C468)-ER/DY, 1-PB 40 µM, ANF 100 µM, BCT 2.5 µM, cholesterol 100 µM, testosterone 100 µM, bi-exponential fit
  τ1 (phosphorescence decay time with ligand): 79 ± 1 µs
[8]; [18]
  F1 (fraction of first exponential): 53 ± 7%
  τ2 (phosphorescence decay time with ligand): 268 ± 2 µs
  τav (average phosphorescence lifetime with ligand): 173 ± 1 µs
[8]; [13]
  E (LRET efficiency with ligand), lifetime measurements: 26 ± 1%
[8]; [14]
  R (interprobe distance with ligand), lifetime measurements: 41.1± 0.2 Å
  ΔR, lifetime measurements: 4.8 ± 0.2 Å
[9]; Table S1, protein (C377/C468)-ER/DY, 1-PB 40 µM, ANF 100 µM, BCT 2.5 µM, cholesterol 100 µM, testosterone 100 µM, bi-exponential fit
  τ1 (phosphorescence decay time with ligand): 38 ± 1 µs
[9]; [19]
  F1 (fraction of first exponential): 23 ± 5%
  τ2 (phosphorescence decay time with ligand): 163 ± 8 µs
  τav (average phosphorescence lifetime with ligand): 134 ± 3 µs
[9]; Table S2, protein C377/C468-ER/DY, 1-PB 40 µM, ANF 100 µM, BCT 2.5 µM, cholesterol 100 µM, testosterone 100 µM
  E (LRET efficiency with ligand), lifetime measurements: 26 ± 2%
[9]; [20]
  R (interprobe distance with ligand), lifetime measurements: 41.0 ± 0.6 Å
  ΔR, lifetime measurements: 4.2 ± 0.6 Å
[10]; [21]
  F1 (fraction of first exponential): 44 ± 3%
  τ2 (phosphorescence decay time with ligand): 222 ± 8 µs
  τav (average phosphorescence lifetime with ligand): 154 ± 1 µs
[10]; [22]
  R (interprobe distance with ligand), lifetime measurements: 35.8 ± 0.1 Å
  ΔR, lifetime measurements: 0.8 ± 0.1 Å
